Reference: US20080220499A1, “NOVEL PROTEASE FOR INDUSTRIAL APPLICATIONS” (priority 2006, published 2008)

What was measured:
Assay type in all cases: biochemical
[1] = system: protease isolated from Pseudomonas aeruginosa MCM B-327; assay: Effect of organic solvents on protease activity; settings: for Enzyme activity: organic solvent 50% v/v, 30 min of incubation, Tris-HCl pH 8.0, 37° C., None = 42.77; for inhibition of the enzyme: 50% v/v, after 30 min of incubation
Description: The cell free supernatant was salt precipitated and used for this study in Tris-HCl buffer, pH 8.0 at 37° C.

[2] = system: protease isolated from Pseudomonas aeruginosa MCM B-327; assay: Effect of ingredients of detergents on protease activity; settings: for Enzyme activity: incubated 30 min prior to assay, Tris-HCl pH 8.0, 37° C., None = 42.77; for effect of surfactant on protease activity (in words): 1%
Description: (§1) This example illustrates the effect of ingredients of detergents on activity of the protease isolated from Pseudomonas aeruginosa MCM B-327 when grown in soybean meal−tryptone (HiMedia) medium. The cell free supernatant was salt precipitated and used for this study in Tris-HCl buffer, pH 8.0 at 37° C. The enzyme and ingredients of detergent were incubated for 30 min prior to enzyme assay. The enzyme was stable in detergent ingredients while 20% inhibited by SDS.

[3] = system: protease isolated from Pseudomonas aeruginosa MCM B-327; assay: Effect of metal ions on protease activity; settings: Tris-HCl pH 8.0, 37° C.; for Enzyme activity: None = 42.77
Description: This example illustrates the effect of metal ions on activity of the protease isolated from Pseudomonas aeruginosa MCM B-327 when grown in soybean meal−tryptone (HiMedia) medium. The cell free supernatant was salt precipitated and used for this study in Tris-HCl buffer, pH 8.0 at 37° C.

[4] = system: protease isolated from Pseudomonas aeruginosa MCM B-327; assay: Effect of inhibitors on protease activity; settings: for Enzyme activity: incubated 30 min, None = 42.77
Description: as §1, with “inhibitors” for “ingredients of detergents”, “the inhibitor” for “ingredients of detergent”, “assay.” for “assay. The enzyme was stable in detergent ingredients while 20% inhibited by SDS.”

[5] = inhibitor 1 mM, Tris-HCl pH 8.0, 37° C.

Compound | Enzyme activity [1] | effect of metal ion on enzyme activity (in words) [3] | Enzyme activity ([3]; metal ion at 5 mM) | other results
CC(C)CC(C)(C)C [Isooctane] | 28.65 U/mg precipitate |  |  | 
O=P(O)(O)OP(=O)(O)OP(=O)(O)O [Sodium tripolyphosphate] |  |  |  | Enzyme activity ([2]; detergent ingredient 1%): 44.05 U/mg precipitate
[Cl][Hg][Cl] [HgCl2] |  | affected the enzyme activity considerably | 6.84 U/mg precipitate | Enzyme activity ([3]; HgCl2 at 1 mM): 9.83 U/mg precipitate
[Ca+2].[Cl-].[Cl-] [CaCl2] |  | resistant to inhibition | 42.34 U/mg precipitate | 
Triton X100 |  |  |  | effect of surfactant on protease activity (in words) ([2]; 30 min): no inhibitory effect; Enzyme activity ([2]; detergent ingredient 1%): 41.49 U/mg precipitate
O=S(=O)([O-])[O-].[Fe+2] [FeSO4] |  | resistant to inhibition | 37.64 U/mg precipitate | 
O=S(=O)([O-])[O-].[Mg+2] [MgSO4] |  | resistant to inhibition | 42.77 U/mg precipitate | 
O=S(=O)([O-])[O-].[Mn+2] [MnSO4] |  | resistant to inhibition | 37.21 U/mg precipitate | 
NC(=O)CI [Iodoacetamide] |  |  |  | Enzyme activity [4, 5]: 44.05 U/mg precipitate; Enzyme activity ([4]; inhibitor 5 mM): 43.62 U/mg precipitate
Cc1ccccc1 [Toluene] | 20.95 U/mg precipitate |  |  | inhibition of the enzyme [1]: 51%
CCCCC=O [1-pentanone] | 11.54 U/mg precipitate |  |  | 
c1ccccc1 [Benzene] | 11.54 U/mg precipitate |  |  | 
O=S(=O)([O-])[O-].[Cu+2] [CuSO4] |  | affected the enzyme activity considerably | 10.69 U/mg precipitate | 
O=S(=O)([O-])[O-].[Zn+2] [ZnSO4] |  | affected the enzyme activity considerably | 12.40 U/mg precipitate | 
CO [Methanol] | 14.11 U/mg precipitate |  |  | 
CCCCCC [n-hexane] | 26.94 U/mg precipitate |  |  | 
CCCCCCCCCCCCOS(=O)(=O)[O-].[Na+] [SDS] |  |  |  | inhibition of the enzyme ([2]; detergent ingredient 1%, 30 min): 20%; Enzyme activity ([2]; detergent ingredient 1%): 34.21 U/mg precipitate
CCO [Ethanol] | 3.84 U/mg precipitate |  |  | inhibition of the enzyme [1]: 91%
m-p-xylene | 28.65 U/mg precipitate |  |  | 
O=S(=O)(F)Cc1ccccc1 [PMSF, Phenyl methyl sulphonyl fluoride] |  |  |  | Enzyme activity [4, 5]: 40.20 U/mg precipitate; Enzyme activity ([4]; inhibitor 5 mM): 31.65 U/mg precipitate
CC(C)=O [Acetone] | 13.68 U/mg precipitate |  |  | 
CCCCCCCC/C=C\CCCCCCCC(=O)OCCOCC(OCCO)C1OCC(OCCO)C1OCCO (centres unmarked) [Tween 80] |  |  |  | effect of surfactant on protease activity (in words) ([2]; 30 min): no inhibitory effect; Enzyme activity ([2]; detergent ingredient 1%): 43.62 U/mg precipitate
O[C@@H](CS)[C@@H](O)CS [DTT, dithiothretol] |  |  |  | inhibition of the enzyme (in words) ([4]; 1 & 5 mM): completely inhibited; Enzyme activity [4, 5]: 0 U/mg precipitate; Enzyme activity ([4]; inhibitor 5 mM): 0 U/mg precipitate
[Cl-].[Na+] [NaCl] |  | resistant to inhibition | 41.06 U/mg precipitate | 
O=C(O)CN(CCN(CC(=O)O)CC(=O)O)CC(=O)O [EDTA, Ethylenediamine tetra acetic acid] |  |  |  | Enzyme activity ([4]; inhibitor 2 mM): 32.93 U/mg precipitate; Enzyme activity ([4]; inhibitor 5 mM): 30.36 U/mg precipitate
